Values quoted from earlier work as cited in patent US20030129629A1, “Methods and compositions for the identification, assessment, prevention, and therapy of human cancers” (Millennium Pharmaceuticals, Inc., priority 2000, published 2003).
Read-outs that look alike come from different tables or passages of the source.

System: 60 cancer cell lines (NCI 60 cancer cell line series)
Conditions: cited from earlier work

## CC[C@@]1(O)C(=O)OCc2c1cc1n(c2=O)Cc2cc3c(CN(C)C)c(O)ccc3nc2-1 [Topotecan]
CNS SF-268 CL12014
  −Log (GI50): 7.7
Leukemia CCRF-CEM(I) CL7003
  −Log (GI50): 7.9
Leukemia MOLT-4 CL7006
  −Log (GI50): 7.9
NSCLC HOP-62 CL1026
  −Log (GI50): 7.9
NSCLC NCI-H23(I) CL1001
  −Log (GI50): 7.4
NSCLC NCI-H460 CL1021
  −Log (GI50): 7.7
